# Data from patent US12709745B2 (priority 2012, dated 2026).
# How the values were obtained:
# [1] = target: recombinant human WT SOD1 (Homo sapiens, UniProt P00441); type: biochemical
# [2] = target: SOD1 (Homo sapiens, UniProt P00441); type: biochemical
# [3] = target: T1, DJ-1 (Homo sapiens, UniProt Q99497); type: biochemical
# [4] = target: T1, DJ-1; type: binding
# [5] = target: WT DJ-1 (Homo sapiens, UniProt Q99497); type: biochemical
# [6] = in vivo; cited from earlier work
# Sequence of WT DJ-1 (Q99497 whole entry): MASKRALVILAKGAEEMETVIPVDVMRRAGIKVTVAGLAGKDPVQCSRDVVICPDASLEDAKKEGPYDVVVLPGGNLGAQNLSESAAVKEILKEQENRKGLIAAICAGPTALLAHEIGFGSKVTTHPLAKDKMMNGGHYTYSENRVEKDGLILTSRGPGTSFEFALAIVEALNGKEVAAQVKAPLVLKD
# T1 sequence (Q99497 whole entry): as above
# Sequence of recombinant human WT SOD1 (P00441 whole entry): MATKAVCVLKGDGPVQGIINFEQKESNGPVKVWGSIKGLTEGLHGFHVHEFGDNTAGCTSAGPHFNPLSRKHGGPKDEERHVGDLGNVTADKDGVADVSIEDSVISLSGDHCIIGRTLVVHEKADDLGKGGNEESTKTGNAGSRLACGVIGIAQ
# Sequence of SOD1 (P00441 whole entry): as above
Compound,covalent dimerization of SOD1 [1],denaturation temperature of DJ-1 [4],covalent dimerization of DJ-1 [5],further results
"OCC1(CO)CSSC1 [1,2-dithiolane-4,4-dimethanol]",capable of covalently dimerizing SOD1,,,
"O=C1C=CC(=O)N1CCSSCCN1C(=O)C=CC1=O [DTME, dithio-bismaleimidocthane]",,,,cross-linking of SOD1 monomers [2]: able to cross-link SOD1 monomers
"[O-][S+]1CCCCS1 (stereo not shown) [NSC56224, 1-oxo-1,2-dithiane]",capable of covalently dimerizing SOD1,increase the measured denaturation temperature of DJ-1,covalent dimerizer of DJ-1,site of covalent linkage in DJ-1 dimer [3]: covalently linked DJ-1 dimers at Cys53; extent of cross-linking of SOD1 monomers [1]: able to cross-link the majority of SOD1 monomers in the sample
NC(=O)NN=C1CSSC1 [NSC72268],,increase the measured denaturation temperature of DJ-1,specific covalent dimerizer of DJ-1,
CC(C)C[C@H](NC(=O)[C@H](Cc1ccccc1)NC(=O)c1cnccn1)B(O)O [bortezomib],,,,LD100 [6]: < 0.25 mg/kg
